# Source: patent US4156729A, “1,2-Benzisothiazolin-3-ones” (Bayer Aktiengesellschaft, priority 1976, dated 1979)
# Assays:
# Human PRP = assay: In vitro ADP-induced thrombocyte aggregation inhibition, human PRP; format: cell-based; conditions: 10 min preincubation, 37° C.
# Procedure: (§1) In vitro: Blood from healthy human test subjects of both sexes, and blood of rabbits and rats is used. One part of 3.8% strength aqueous sodium citrate solution, as an anticoagulant, is mixed with nine parts of blood. Centrifugation of this blood gives a platelet-rich citrate plasma (PRP); see generally Jurgens/Beller, Klinische Methoden der Blutgerinnungsanalyse, Thieme Verlag, Stuttgart (1959).
# (§2) A mixture of 0.8 ml of PRP and 0.1 ml of the active compound solution is preincubated for 10 minutes at 37° C. Thrombocyte aggregation is then determined by the turbidimetric method of Born [J. Physiol. (London) 162, 67 (1962)] in an aggregometer at 37° C. [see generally Therapeutische Berichte, 47, 80-86 (1975)]. An aggregation-initiating agent (0.1 ml) such as collagen or ADP is thus added to the preincubated sample. The change in the optical density in the sample of PRP is recorded over a period of 6 minutes and the percentage inhibition is then calculated from the integrated area or the deflection.
# (§3) Table I presents ranges of concentration at which the thrombocyte aggregation is inhibited by a value of 50% utilizing 2-(2-diethylaminoethyl)-4,6-dimethyl-1,2-benzisothiazolin-3-one (as the 1,5-naphthalenedisulfonate hemisalt) [compound A].
# Rabbit PRP [1] = assay: In vitro ADP-induced thrombocyte aggregation inhibition, rabbit PRP; format: cell-based; conditions: Oryctolagus cuniculus, 10 min preincubation, 37° C.
# Procedure: as §1, §2, §3
# Rat PRP = assay: In vitro ADP-induced thrombocyte aggregation inhibition, rat PRP; format: cell-based; conditions: 10 min preincubation, 37° C.
# Procedure: as §1, §2, §3
# [2] = tested on: thrombocyte aggregation in PRP of rats; assay: Inhibition of collagen-induced thrombocyte aggregation in PRP of rats upon in vivo administration; conditions: rat, 10 mg/kg oral, 90 minutes after administration, *=statistically significant (p 0.05)
# Procedure: as §2
# (§4) In carrying out these experiments, the compound is administered orally in a tragacanth suspension. The animals are then bled, 90 minutes (rats) or 2 hours (rabbits), after administration, and the PRP is isolated by centrifuging. After isolating the PRP, the measurement of the aggregation inhibition is conducted in vitro analogously to the process described for Table I, without however any preincubation of the samples. Three parts of the rat PRP are furthermore diluted with 1 part of physiological sodium chloride solution.
# [3] = tested on: thrombocyte aggregation in PRP of rats; assay: Inhibition of ADP-induced thrombocyte aggregation in PRP of rats upon in vivo administration; conditions: rat, 30 mg/kg oral, 90 minutes after administration, *=statistically significant (p 0.05)
# Procedure: as §2, §4
# [4] = tested on: thrombocyte aggregation in PRP of rabbits; assay: Inhibition of collagen-induced thrombocyte aggregation in PRP of rabbits upon in vivo administration; conditions: rabbit, 30 mg/kg oral, 2 hours after administration, *=statistically significant (p 0.05)
# Procedure: as §2, §4
# [5] = tested on: thrombocyte aggregation in PRP of rabbits; assay: Inhibition of ADP-induced thrombocyte aggregation in PRP of rabbits upon in vivo administration; conditions: rabbit, 30 mg/kg oral, 2 hours after administration, *=statistically significant (p 0.05)
# Procedure: as §2, §4
# ADP-induced aggregation [6] = assay: ADP-induced aggregation in vitro (summary statement); format: cell-based; conditions: relative to the compounds according to the invention
# Procedure: as §1, §2
# ADP-induced aggregation [7] = assay: Activity in vivo at the tested doses (summary statement)
# Procedure: as §4
# [8] = tested on: thrombus formation in left carotid artery of a rat; assay: Inhibition of thrombus formation in vivo (rat carotid artery); conditions: 30 mg/kg oral, immediately before the procedure, thrombus isolated 4 hours later
# Procedure: In this experiment, the left carotid artery of a rat is exposed and cooled to minus 15° C. to stimulate thrombus formation. At the same time, the blood flow is reduced by means of a silver clip. The thrombus is isolated from the artery 4 hours later and is weighted. The table indicates the percentage reduction in weight of the thrombus when the test compound is administered immediately before the procedure.
# Rabbit PRP [9] = assay: In vitro collagen-induced thrombocyte aggregation inhibition, rabbit PRP; format: cell-based; conditions: Oryctolagus cuniculus, 10 min preincubation, 37° C.
# Procedure: as §1, §2, §3
Compound,IC50 (Human PRP),IC50 (Rabbit PRP [1]),IC50 (Rat PRP),Percent inhibition (1) (integrated area) [2],Percent inhibition (2) (amplitude) [2],Percent inhibition (1) (integrated area) [3],Percent inhibition (2) (amplitude) [3],Percent inhibition (1) (integrated area) [4],Percent inhibition (2) (amplitude) [4],Percent inhibition (1) (integrated area) [5],Percent inhibition (2) (amplitude) [5],activity in vitro (ADP-induced aggregation [6]),activity in vivo (ADP-induced aggregation [7]),Percentage inhibition (percentage reduction in weight of the thrombus) [8],IC50 (Rabbit PRP [9])
CC(=O)Oc1ccccc1C(=O)O [Acetylsalicylic acid],> 100 µg/mL,> 10 µg/mL,> 10 µg/mL,31%,35%,15%,27%,63%,58%,15%,6%,,,,
O=C1C(CC[S+]([O-])c2ccccc2)C(=O)N(c2ccccc2)N1c1ccccc1 (centres unmarked) [Sulfinepyrazone],> 100 µg/mL,,> 10 µg/mL,-3%,0%,,-5%,,,,,substantially less active in vitro,inactive at the tested doses in vivo,,
OCCN(CCO)c1nc(N2CCCCC2)c2nc(N(CCO)CCO)nc(N3CCCCC3)c2n1 [Dipyridamol],> 100 µg/mL,,> 10 µg/mL,5%,7%,,-23%,,,,,substantially less active in vitro,inactive at the tested doses in vivo,17 Percentage,
"CCN(CC)CCn1sc2cc(C)cc(C)c2c1=O [Compound A, 2-(2-diethylaminoethyl)-4,6-dimethyl-1,2-benzisothiazolin-3-one]",,1 µg/mL,1 µg/mL,72%,71%,45%,77%,74%,72%,33%,54%,,,48 Percentage,1 µg/mL
